Test results: US12514938B2, “Fibroblast activation protein targeting peptides” (PERSPECTIVE THERAPEUTICS, INC., priority 2023, dated 2026)
*1 amine or outer side, *2 acyl side, *3 side chain or, on linkers, in order; H or OH if unused. Where a SMILES comes first, the peptide text is derived from it. Bridges are numbered along the chain shown (N, C = ends). [ ]: non-standard residue; d: D form. The star is where a group is joined. X3 = NC(=O)CN1CCN(CC(=O)O)CCN(CC(=O)NCCOCCOCCC(=O)N[C@@H](Cc2ccccc2)C(=O)NC(CC(=O)[*:1])CC(=O)[*:2])CCN(CC(=O)O)CC1; X2 = NC(=O)CN1CCN(CC(=O)O)CCN(CC(=O)NCCOCCOCCC(=O)NCCSCc2cc(C[*:1])cc(C[*:2])c2)CCN(CC(=O)O)CC1; X1 = NC(=O)CN1CCN(CC(=O)O)CCN(CC(=O)*)CCN(CC(=O)O)CC1; 2Nal = N[C@@H](Cc1ccc2ccccc2c1)C(=O)O; oXylylene = c1ccc(C[*:2])c(C[*:1])c1; Bta = N[C@@H](Cc1csc2ccccc12)C(=O)O; 12Ado = NCCCCCCCCCCCC(=O)O; Dap = NC[C@H](N)C(=O)O; PEG2 = NCCOCCOCCC(=O)O; PEG1 = NCCOCCC(=O)O

Target: T1, Human Fibroblast Activation Protein (FAP) (Homo sapiens, UniProt Q12884)
T1 sequence (Q12884 1-760): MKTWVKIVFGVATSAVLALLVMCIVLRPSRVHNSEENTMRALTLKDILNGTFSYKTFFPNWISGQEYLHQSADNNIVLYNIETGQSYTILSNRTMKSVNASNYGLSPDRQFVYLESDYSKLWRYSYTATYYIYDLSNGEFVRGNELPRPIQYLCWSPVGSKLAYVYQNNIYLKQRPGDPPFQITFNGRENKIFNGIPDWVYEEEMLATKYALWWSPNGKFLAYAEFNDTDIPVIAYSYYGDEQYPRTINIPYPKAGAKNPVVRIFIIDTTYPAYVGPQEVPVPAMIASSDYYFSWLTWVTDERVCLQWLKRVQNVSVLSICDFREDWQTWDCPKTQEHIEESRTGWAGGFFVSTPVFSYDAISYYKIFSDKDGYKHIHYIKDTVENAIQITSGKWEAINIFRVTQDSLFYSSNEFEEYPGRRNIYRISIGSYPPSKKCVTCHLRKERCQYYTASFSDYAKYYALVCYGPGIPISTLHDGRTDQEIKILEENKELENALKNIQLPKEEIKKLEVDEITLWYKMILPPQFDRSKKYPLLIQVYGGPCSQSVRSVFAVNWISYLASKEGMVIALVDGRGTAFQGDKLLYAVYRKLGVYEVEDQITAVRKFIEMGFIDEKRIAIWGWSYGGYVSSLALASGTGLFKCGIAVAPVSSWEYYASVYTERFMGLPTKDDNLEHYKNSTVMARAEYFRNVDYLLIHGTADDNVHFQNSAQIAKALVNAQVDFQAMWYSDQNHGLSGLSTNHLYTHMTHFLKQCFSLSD
Assay: Enzyme inhibition assay against human FAP (substrate Z-GP-AMC), Example 1
Format: biochemical
Conditions: human FAP 5 ng/well, 50 μM Z-GP-AMC; Ki from IC50 by Cheng-Prusoff
Protocol: Binding Affinity Against Human Fibroblast Activation Protein (FAP)
An enzyme inhibition assay was performed to determine IC50 values and then the Cheng-Prusoff equation used to calculate the Ki given a known Km of the substrate Z-GP-AMC for FAP. To perform the assay, FAP (5 ng/well) and the test peptide at varying concentrations (i.e. 10^−6 to 10^−12) were incubated in a black 96-well plate for 10 minutes at RT on a shaker plate. Then, the substrate Z-GP-AMC was added to give a final concentration of 50 μM. The total reaction volume per well was 100 μL The reaction was allowed to incubate at RT on a shaker plate for 1 hour protected from light, and then fluorescence read with a BioTek Synergy LX plate reader at an ex/em (360/40 and 460/40). Experiments were performed in at least duplicate, and controls of buffer only, buffer and FAP enzyme, and buffer with substrate and FAP enzyme only were included for comparison. The buffer used for the assay was 50 mM Tris-HCl, 1M NaCl, and 1 mg/mL BSA, pH=7.5. Data was plotted in GraphPad Prism and non-linear regression used to calculate IC50 values. The compounds tested and Ki values of each were as follows: […]

Molecule	Ki
PSC-Bn-NCS-PEG2-[C(oXdB)TPWEQWWC]-NH2 [VMT-FAP-2-73]	3.61 nM
C[C@@H](O)[C@@H]1NC(=O)[C@@H](NC(=O)[C@H](CO)NC(=O)CCOCCOCCNC(=O)CN2CCN(CC(=O)O)CCN(CC(N)=O)CCN(CC(=O)O)CC2)CSCc2ccccc2CSC[C@@H](C(N)=O)NC(=O)[C@H](Cc2c[nH]c3ccccc23)NC(=O)[C@H](Cc2c[nH]c3ccccc23)NC(=O)[C@H](CCC(N)=O)NC(=O)[C@H](CCC(=O)O)NC(=O)[C@H](Cc2ccc3ccccc3c2)NC(=O)[C@@H]2CCCN2C1=O [VMT-FAP-2-53, PSC-PEG2-[SC(oXdB)TP2-NalEQWWC]-NH2] ({X1-PEG2}-SCTP[2Nal]EQWWC-NH2; linker 2-10 via oXylylene)	0.34 nM
CC(=O)N[C@@H](CC(N)=O)C(=O)N[C@H]1CSCc2ccccc2CSC[C@@H](C(N)=O)NC(=O)[C@H](Cc2c[nH]c3ccccc23)NC(=O)[C@H](Cc2c[nH]c3ccccc23)NC(=O)[C@H](CCC(N)=O)NC(=O)[C@H](CCC(=O)O)NC(=O)[C@H](Cc2ccccc2)NC(=O)[C@@H]2CCCN2C(=O)[C@H]([C@@H](C)O)NC1=O [VMT-FAP-1-17, Ac-N[C(oXdB)TPFEQWWC]-NH2] (Ac-NCTPFEQWWC-NH2; linker 2-10 via oXylylene)	10.7 nM
C[C@@H](O)[C@@H]1NC(=O)[C@@H](NC(=O)CCCCCCCCCCCNC(=O)CN2CCN(CC(=O)O)CCN(CC(N)=O)CCN(CC(=O)O)CC2)CSCc2ccccc2CSC[C@@H](C(N)=O)NC(=O)[C@H](Cc2c[nH]c3ccccc23)NC(=O)[C@H](Cc2c[nH]c3ccccc23)NC(=O)[C@H](CCC(N)=O)NC(=O)[C@H](CCC(=O)O)NC(=O)[C@H](Cc2c[nH]c3ccccc23)NC(=O)[C@@H]2CCCN2C1=O [VMT-FAP-2-74, PSC-12-Ado-[C(oXdB)TPWEQWWC]-NH2] ({X1-12Ado}-CTPWEQWWC-NH2; linker 1-9 via oXylylene)	6.66 nM
CC(=O)N[C@@H](CO)C(=O)N[C@H]1CNC(=O)CC(NC(=O)[C@H](Cc2ccccc2)NC(=O)CCOCCOCCNC(=O)CN2CCN(CC(=O)O)CCN(CC(N)=O)CCN(CC(=O)O)CC2)CC(=O)NC[C@@H](C(N)=O)NC(=O)[C@H](Cc2c[nH]c3ccccc23)NC(=O)[C@H](Cc2c[nH]c3ccccc23)NC(=O)[C@H](CCC(N)=O)NC(=O)[C@H](CCC(=O)O)NC(=O)[C@H](Cc2ccccc2)NC(=O)[C@@H]2CCCN2C(=O)[C@H]([C@@H](C)O)NC1=O (stereo partly drawn) [VMT-FAP-2-33, Ac-S-[Dap(bGlu(F-PEG2-PSC))TPFEQWWDap]-NH2] (Ac-S[Dap]TPFEQWW[Dap]-NH2; linker 2-10 via X3 (inferred))	1.26 nM
C[C@H](N)C(=O)N[C@H]1CSCc2ccccc2CSC[C@@H](C(N)=O)NC(=O)[C@H](Cc2c[nH]c3ccccc23)NC(=O)[C@H](Cc2c[nH]c3ccccc23)NC(=O)[C@H](CCC(N)=O)NC(=O)[C@H](CCC(=O)O)NC(=O)[C@H](Cc2ccccc2)NC(=O)[C@@H]2CCCN2C(=O)[C@H]([C@@H](C)O)NC1=O [VMT-FAP-2-19, A[C(oXdB)TPFEQWWC]-NH2] (H-ACTPFEQWWC-NH2; linker 2-10 via oXylylene; N-terminus assumed)	0.45 nM
NODA-PEG2-[C(oXdB)TPWEQWWC]-NH2 [VMT-FAP-2-77]	4.59 nM
CC[C@H](C)[C@@H]1NC(=O)[C@H](CCC(=O)O)NC(=O)[C@H](Cc2ccccc2)NC(=O)[C@@H]2CCCN2C(=O)[C@H]([C@@H](C)O)NC(=O)[C@@H](NC(=O)[C@H](CO)NC(C)=O)CSCc2ccccc2CSC[C@@H](C(N)=O)NC(=O)[C@H](Cc2c[nH]c3ccccc23)NC(=O)[C@H](Cc2c[nH]c3ccccc23)NC1=O [VMT-FAP-1-94, Ac-S[C(oXdB)TPFEIWWC]-NH2] (Ac-SCTPFEIWWC-NH2; linker 2-10 via oXylylene)	5.01 nM

The next molecules have a lower Ki than those just listed; values first:

Ki	Molecule
0.08 nM	C[C@@H](O)[C@@H]1NC(=O)[C@@H](NC(=O)CCOCCNC(=O)CN2CCN(CC(=O)O)CCN(CC(N)=O)CCN(CC(=O)O)CC2)CSCc2ccccc2CSC[C@@H](C(N)=O)NC(=O)[C@H](Cc2c[nH]c3ccccc23)NC(=O)[C@H](Cc2c[nH]c3ccccc23)NC(=O)[C@H](CCC(N)=O)NC(=O)[C@H](CCC(=O)O)NC(=O)[C@H](Cc2c[nH]c3ccccc23)NC(=O)[C@@H]2CCCN2C1=O [VMT-FAP-2-67, PSC-PEG1-[C(oXdB)TPWEQWWC]-NH2] ({X1-PEG1}-CTPWEQWWC-NH2; linker 1-9 via oXylylene)
0.29 nM	C[C@@H](O)[C@@H]1NC(=O)[C@@H](NC(=O)[C@H](CO)NC(=O)CCOCCOCCNC(=O)CN2CCN(CC(=O)O)CCN(CC(N)=O)CCN(CC(=O)O)CC2)CSCc2ccccc2CSC[C@@H](C(N)=O)NC(=O)[C@H](Cc2c[nH]c3ccccc23)NC(=O)[C@H](Cc2c[nH]c3ccccc23)NC(=O)[C@H](CCC(N)=O)NC(=O)[C@H](CCC(=O)O)NC(=O)[C@H](Cc2c[nH]c3ccccc23)NC(=O)[C@@H]2CCCN2C1=O [VMT-FAP-2-42, PSC-PEG2-S-[C(oXdB)TPWEQWWC]-NH2] ({X1-PEG2}-SCTPWEQWWC-NH2; linker 2-10 via oXylylene)
0.19 nM	C[C@@H](O)[C@@H]1NC(=O)[C@@H](NC(=O)[C@H](CC(=O)O)NC(=O)CCOCCOCCNC(=O)CN2CCN(CC(=O)O)CCN(CC(N)=O)CCN(CC(=O)O)CC2)CSCc2ccccc2CSC[C@@H](C(N)=O)NC(=O)[C@H](Cc2c[nH]c3ccccc23)NC(=O)[C@H](Cc2c[nH]c3ccccc23)NC(=O)[C@H](CCC(N)=O)NC(=O)[C@H](CCC(=O)O)NC(=O)[C@H](Cc2ccccc2)NC(=O)[C@@H]2CCCN2C1=O [VMT-FAP-2-41, PSC-PEG2-D-[C(oXdB)TPFEQWWC]-NH2] ({X1-PEG2}-DCTPFEQWWC-NH2; linker 2-10 via oXylylene)
0.3 nM	C[C@@H](O)[C@@H]1NC(=O)[C@@H](NC(=O)[C@H](CO)NC(=O)CCOCCOCCNC(=O)CN2CCN(CC(=O)O)CCN(CC(N)=O)CCN(CC(=O)O)CC2)CSCc2ccccc2CSC[C@@H](C(N)=O)NC(=O)[C@H](Cc2c[nH]c3ccccc23)NC(=O)[C@H](Cc2c[nH]c3ccccc23)NC(=O)[C@H](CCC(N)=O)NC(=O)[C@H](CCC(=O)O)NC(=O)[C@H](Cc2csc3ccccc23)NC(=O)[C@@H]2CCCN2C1=O [VMT-FAP-2-61, PCS-PEG2-S-[C(oXdB)TPBtaEQWWC]-NH2] ({X1-PEG2}-SCTP[Bta]EQWWC-NH2; linker 2-10 via oXylylene)
0.28 nM	CC(=O)N[C@H]1CSCc2cc(CSCCNC(=O)CCOCCOCCNC(=O)CN3CCN(CC(=O)O)CCN(CC(N)=O)CCN(CC(=O)O)CC3)cc(c2)CSC[C@@H](C(N)=O)NC(=O)[C@H](Cc2c[nH]c3ccccc23)NC(=O)[C@H](Cc2c[nH]c3ccccc23)NC(=O)[C@H](CCC(N)=O)NC(=O)[C@H](CCC(=O)O)NC(=O)[C@H](Cc2c[nH]c3ccccc23)NC(=O)[C@@H]2CCCN2C(=O)[C@H]([C@@H](C)O)NC1=O [VMT-FAP-2-51, Ac-[C(mXtB(CA-PEG2-PSC))TPWEQWWC]-NH2] (Ac-CTPWEQWWC-NH2; linker 1-9 via X2)
0.29 nM	C[C@@H]1NC(=O)[C@H](CCC(=O)O)NC(=O)[C@H](Cc2ccccc2)NC(=O)[C@@H]2CCCN2C(=O)[C@H]([C@@H](C)O)NC(=O)[C@@H](NC(=O)[C@@H](N)CO)CSCc2ccccc2CSC[C@@H](C(N)=O)NC(=O)[C@H](Cc2c[nH]c3ccccc23)NC(=O)[C@H](Cc2c[nH]c3ccccc23)NC1=O [VMT-FAP-2-23, S[C(oXdB)TPFEAWWC]-NH2] (H-SCTPFEAWWC-NH2; linker 2-10 via oXylylene; N-terminus assumed)
